These results are taken from patent US10315994B2, “Photostable compounds, absorbing compounds and uses thereof” (Commonwealth Scientific and Industrial Research Organisation, priority 2015, dated 2019).

Holding throughout (type): physicochemical
Data set [1] can be described thus: UV/visible absorbance characteristics (λmax, λcrit, ε, E 1%,1 cm). Particulars: for ε: in M-1 cm-1 (unit assumed); for Peak point of absorbance curve (figure legend): unirradiated control, FIGS. 3-5.
Data set [2] can be described thus: Photostability of thin films exposed to xenon arc lamp. Particulars: for % λmax (% of original absorbance remaining): absorbance at λmax, irradiated vs unirradiated; for % λmax (% of original absorbance remaining) / % abs total (% of original absorbance remaining): xenon arc lamp 1 hour, thin film; for % abs total (% of original absorbance remaining): sum of absorbance 290-400 nm. How it is done:
1 mL of a 3% solution of the test compound (30 mg of test compound in 1 mL solvent) was prepared in a solvent mix made up of 50% EtOH and 25% capric/caprylic triglyceride and 25% C12-C15 alkyl benzoate. 50 μL of this solution (containing 1.5 mg of test compound) was added carefully to the centre of a glass microscope slide and the volatile components left to evaporate in the dark for at least 3 hours to give a liquid film. […] The irradiation was performed in a fume cupboard where the air flow was sufficient to keep sample T<30° C. One hour's exposure represented a calculated radiation dose (using meter) of approximately 100 MED.
In order to calculate the photostability of the test compounds, the exposed slides were placed in a beaker and rinsed with 2×5 mL EtOH, 1×5 mL MeOH. The combined washings were then added to a 100 mL volumetric flask and made up to 100 mL total volume with methanol. The UV absorbance was then measured in a 10 mm cuvette. The percent stability is measured as the ratio of absorbance at λmax for the irradiated sample compared to the unirradiated sample. As a further measure, a comparison of the sum of the absorbance in the 290-400 nm range was calculated.
The thin films are a good surrogate for testing the stability of a candidate in a sunscreen formulation as they use cosmetic emollients as solvent and are formed at cosmetically relevant concentrations.

A short description of data set [3]: Solubility in sunscreen formulation / 3% solution in EtOH:capric/caprylic triglyceride:C12-C15 alkyl benzoate. Particulars: for Solubility in standard commercial sunscreen formulations: e.g. 3% solution in 2:1:1 EtOH:capric/caprylic triglyceride:C12-C15 alkyl benzoate. How it is done: In one embodiment, the compounds may provide for improved solubility or stability in standard compositions, including sunscreen compositions. […] Such solubility may be measured by generating, for example, a 3% solution of the relevant compound in 2:1:1 EtOH:capric/caprylic triglyceride:C12-C15 alkyl benzoate.
1 mL of a 3% solution of the test compound (30 mg of test compound in 1 mL solvent) was prepared in a solvent mix made up of 50% EtOH and 25% capric/caprylic triglyceride and 25% C12-C15 alkyl benzoate. 50 μL of this solution (containing 1.5 mg of test compound) was added carefully to the centre of a glass microscope slide and the volatile components left to evaporate in the dark for at least 3 hours to give a liquid film. The prepared films were then exposed for 1 hour to an Eimac 150 W xenon arc lamp filtered through Pyrex (15 Amp supply current, samples 19 cm from the lamp) previously allowed to warm up for 15 minutes prior to sample exposure. The irradiation was performed in a fume cupboard where the air flow was sufficient to keep sample T<30° C. One hour's exposure represented a calculated radiation dose (using meter) of approximately 100 MED.

For `CC(F)(F)C(=O)C1=CN(C(C)(C)C)CCC1(C)C`, in data set [1] (Table 5), the “E (1%, 1 cm)” value is recorded as 1285; the λcrit is reported as 331 nm; the λmax amounted to 314 nm; the ε is 33288. Besides, the “Photostability (%)” value in data set [2] (Table 5) was found to be 49%.
The matching figures for `CC1(C)CCN(C(C)(C)C)C=C1C(=O)CF`: 1655, 326 nm, 310 nm, 37586 and 30%.
Consider `CC1(C)CCN(C(C)(C)C)C=C1C(=O)CCCCCCCCC(=O)C1=CN(C(C)(C)C)CCC1(C)C` [Compound 54], for which, in data set [1] (Table 6), the “E (1%, 1 cm)” value is recorded as 1197 and the ε is on record as 59850. Besides, the “Peak point of absorbance curve (figure legend)” value (“Peak point of absorbance curve” for short) in data set [1] was “approximately 310 nm”. The “Photostability (%)” value in data set [2] (Table 6) amounted to 63%. In data set [2], the “% λmax (% of original absorbance remaining)” value is 63% and the “% abs total (% of original absorbance remaining)” value is 61%.
Turning to `CC1(C)CCN(C(C)(C)C)C=C1C(=O)C(F)(F)F` [Compound 98], in data set [1] (Table 1), the “E (1%, 1 cm)” value is listed as 1380; the λcrit was 331 nm; the λmax is recorded as 315 nm; the ε is listed as 36298. Also, in data set [1] (Table 6), the “E (1%, 1 cm)” value was 1380; the λcrit amounted to 331 nm; the λmax stood at 315 nm; the ε is 36298. In data set [1], the “Peak point of absorbance curve” value is “approximately 320 nm”. For the same compound, in data set [2] (Table 6), the “Photostability (%)” value was found to be 89%. Also, in data set [2], the “% λmax (% of original absorbance remaining)” value came out at 88% and the “% abs total (% of original absorbance remaining)” value was 84%. In data set [2] (exposure to the lamp for 1 h), the “Photostability, % remaining after irradiation” value (shortened to “Photostability, % remaining”) amounted to 88%.
Take `CC1(C)CCN(c2ccccc2)C=C1C(=O)C(F)(F)F` [Compound 106]: in data set [1] (Table 1), the “E (1%, 1 cm)” value is on record as 1033; the λcrit was 357 nm; the λmax is reported as 335 nm; the ε worked out at 29040. The “Peak point of absorbance curve” value in data set [1] is given as “approximately 335 nm”. Further, in data set [2], the “% λmax (% of original absorbance remaining)” value came to 97% and the “% abs total (% of original absorbance remaining)” value is 97%. In data set [2] (exposure to the lamp for 1 h), the “% decomposed after irradiation” value was “less than 5%”.
As to `CN(CCCCCCN(C)c1ccc(C(=O)C2=CN(C(C)(C)C)CCC2(C)C)cc1)c1ccc(C(=O)C2=CN(C(C)(C)C)CCC2(C)C)cc1` [Compound 109], the λcrit in data set [1] (Table 1) stood at 364 nm. Besides, the “Photostability, % remaining” value in data set [2] (exposure to the lamp for 1 h) is 22%.
On to `CCCCC(CC)CN(c1ccc(C(=O)C2=CN(C(C)(C)C)CCC2(C)C)cc1)c1ccc(C(=O)C2=CN(C(C)(C)C)CCC2(C)C)cc1` (stereo not shown) [Compound 136], for which, in data set [1] (Table 1), the λmax was about 340 nm. Besides, in data set [2], the “% λmax (% of original absorbance remaining)” value is 49% and the “% abs total (% of original absorbance remaining)” value is given as 56%. In data set [2] (exposure to the lamp for 1 h), the “Photostability, % remaining” value was found to be 49%.
As for `CCCOC(=O)CCC(=O)C1=CN(c2ccc(N3C=C(C(=O)CCC(=O)OCCC)C(C)(C)CC3)cc2)CCC1(C)C` [Compound 152], the “Solubility in standard commercial sunscreen formulations” value in data set [3] is recorded as “readily soluble”.
As for `CCCCC(CC)COC(=O)CCC(=O)C1=CN(c2ccc(N3C=C(C(=O)CCC(=O)OCC(CC)CCCC)C(C)(C)CC3)cc2)CCC1(C)C` (stereo not shown) [Compound 153], in data set [2], the “% λmax (% of original absorbance remaining)” value came out at 52%. Also, the “Solubility in standard commercial sunscreen formulations” value in data set [3] is recorded as “readily soluble”.
Consider `CC(C)=CCCC(C)CC(=O)C1=CN(c2ccc(N3C=C(C(=O)CC(C)CCC=C(C)C)C(C)(C)CC3)cc2)CCC1(C)C` (stereo not shown) [Compound 154], for which the “Solubility in standard commercial sunscreen formulations” value in data set [3] was “readily soluble”.
On the same count and under the same terms, as for `CC(C)=CCCC(C)CC(=O)C1=CN(c2ccc(N3C=C(C(=O)CC(C)CCC=C(C)C)C(C)(C)CC3)cc2)CCC1(C)C` (stereo not shown) [Compound 155], the entry is “readily soluble”.
On to `CC1(C)CCN(c2ccc(N3C=C(C(=O)CCC(F)(F)F)C(C)(C)CC3)cc2)C=C1C(=O)CCC(F)(F)F` [Compound 157], for which the “% λmax (% of original absorbance remaining)” value in data set [2] came to 54%. Moreover, in data set [3], the “Solubility in standard commercial sunscreen formulations” value was “readily soluble”.
As to `CC1(C)CCN(c2cccc(N3C=C(C(=O)C(F)(F)C(F)(F)C(F)(F)F)C(C)(C)CC3)c2)C=C1C(=O)C(F)(F)C(F)(F)C(F)(F)F` [Compound 159], in data set [1] (Table 1), the “E (1%, 1 cm)” value is recorded as 875; the λcrit was found to be 366 nm; the λmax came out at 348 nm; the ε came out at 60200. Moreover, in data set [1] (Table 4), the “E (1%, 1 cm)” value worked out at 875 and the ε came out at 60200. In addition, the “Photostability (% remains)” value in data set [2] (1 h irradiation) worked out at 91%.
Consider `CC1(C)CCN(c2cccc(N3C=C(C(=O)C(F)(F)F)C(C)(C)CC3)c2)C=C1C(=O)C(F)(F)F` [Compound 160], for which, in data set [1] (Table 1), the “E (1%, 1 cm)” value is recorded as 1380; the λcrit is reported as 364 nm; the λmax came out at 346 nm; the ε stood at 67344. In data set [1] (Table 4), the “E (1%, 1 cm)” value stood at 1380 and the ε turned out to be 67344. Also, the “Photostability (% remains)” value in data set [2] (after 1.5 h irradiation) is 99 (after 1.5 h, others = 1 h) %.
On to `CC1(C)CCN(C(C)(C)C)C=C1C(=O)C(F)(F)C(F)(F)C(F)(F)C(=O)C1=CN(C(C)(C)C)CCC1(C)C` [Compound 168], for which, in data set [1] (Table 6), the “E (1%, 1 cm)” value was found to be 1177; the λcrit was found to be 337 nm; the λmax turned out to be 317 nm; the ε amounted to 63346. For the same compound, the “Solubility for determination of photostability” value in data set [3] (solvent mix of the photostability method) was “not sufficiently soluble”.
As for `CC1(C)CCN(C(C)(C)C)C=C1C(=O)C(Cl)(Cl)Cl` [Compound 169], in data set [1] (Table 6), the “E (1%, 1 cm)” value came to 497; the λcrit is 361 nm; the λmax amounted to 334 nm; the ε was 16618. The “Fate under irradiation” value in data set [2] is recorded as “effectively destroyed”. Also, the “Photostability (%)” value in data set [2] (Table 6) was 5%.
With `CC1(C)CCN(C(C)(C)C)C=C1C(=O)C(Br)(Br)Br` [Compound 170], in data set [1] (Table 6), the “E (1%, 1 cm)” value is 321; the λcrit turned out to be 361 nm; the λmax is 330 nm; the ε is 14203. In data set [2], the “Fate under irradiation” value was “effectively destroyed”. Also, the “Photostability (%)” value in data set [2] (Table 6) is 13%.
Consider `CC1(C)CCN(C(C)(C)C)C=C1C(=O)C(Cl)(Cl)Cl` [drawing 124], for which, in data set [1] (Table 5), the “E (1%, 1 cm)” value is recorded as 497; the λcrit stood at 361 nm; the λmax was 334 nm; the ε is listed as 16618. For the same compound, the “Photostability (%)” value in data set [2] (Table 5) is recorded as 5%.
The matching figures for `CC1(C)CCN(C(C)(C)C)C=C1C(=O)C(Br)(Br)Br` [drawing 125]: 321, 361 nm, 330 nm, 14203 and 13%.
